Reference: patent US11479529B2, “Compounds with antimicrobial activity” (The Hong Kong Polytechnic University, priority 2018, dated 2022)
Converted amounts (≈) assume the structure as drawn. “And” between values parts separate entries of the source, which are not always exact repeats. Equal values may be shown once.

Columns and labels:
[1] = Cytotoxicity assay, HaCaT; assay type: cell-based; settings: HaCaT immortalized human keratinocytes
Procedure: (§1) Cytotoxicity assay was performed as detailed previously^43 except A549 lung carcinoma and HaCaT immortalized human keratinocytes were used in this study.

[2] = Cytotoxicity assay, A549; assay type: cell-based, human; settings: human, A549 lung carcinoma cells
Procedure: as §1

[3] = test system: S. aureus 25923; assay: Microdilution assay (MIC) against control strain S. aureus 25923; assay type: cell-based; settings: Staphylococcus aureus
Procedure: (§2) The antimicrobial activity of the seven compounds against community-acquired MRSA strain USA300 were first screened. […] With a molecular weight of 266.3, MC4 has been reported to be of use only to form a metal complex dye in optical layers for optical data recording.^26 The antimicrobial activities of MC4 against a panel of representative strains of pathogens were then tested.
(§3) Bacterial Strains and Chemicals. The following bacterial strains were used in this study for the microdilution assay: Enterococcus faecalis ATCC 29212, Klebsiella pneumonia ATCC 700603, Acinetobacter baumannii ATCC 19606, Pseudomonas aeruginosa PA01, Enterobacter cloacae ATCC 13047, E. coli ATCC 25922, Proteus vulgaris ATCC 6380, and S. aureus USA300, ATCC 25923, ATCC 29213, ST22, ST30, ST45, ST59, ST239, JE-2, BAA44. E. coli strain DH5a (Gibco BRL) was used in this study for cloning and BL21 (DE3) pLysS^23 was used for protein overproduction. 5-fluorouracil, rifampicin and other antibiotics used in the microdilution assay were purchased from SigmaAldrich. Compounds MC1-7 were purchased from MolPort.
(§4) Antibacterial activity test. Microdilution assay was performed according to the Clinical & Laboratory Standards Institute recommendations.^42 Serial 2-fold dilutions of the tested compounds and antibiotic controls were made from 256 μg/ml to 0.5 μg/ml. DMSO was included as a negative control.

[4] = test system: healthcare acquired MRSA ST239; assay: Microdilution assay (MIC) against healthcare acquired MRSA ST239; assay type: cell-based, Staphylococcus aureus
Procedure: as §2, §3, §4

[5] = test system: S. aureus ATCC 25923 cells; assay: DNA, protein and rRNA quantitation in treated cells; assay type: cell-based, Staphylococcus aureus; settings: one-quarter MIC, exponential growth, versus control cells
Procedure: The level of macromolecules in S. aureus ATCC 25923 cells during exponential growth due to MC4 treatment were analyzed.
DNA, protein and rRNA quantitation. MC4, oxacillin and rifampicin at ¼ MIC level were added to S. aureus strain ATCC 25923 in LB medium at early log phase (OD595=0.2), which was then grown to mid-log phase (OD595==0.5). For DNA and protein quantitation, 1 ml cells were harvested and treated with 10 mg/ml lysozyme+0.5 mg/ml lysostaphin at RT for 1 hr before centrifugation at 13000 g/min for 3 min. The supernatant was discarded and cells lysed with 600 μl Nuclei Lysis Solution (Promega/Genomic DNA Purification Kit) for 5 min, followed by gentle sonication. The amount of DNA was quantified with Qubit dsDNA BR (broad range) and protein quantified with NanoOrange™ Protein Quantitation Kit (ThermoFisher). For rRNA quantitation, 1 ml culture was collected and treated with RNAProtect (Qiagen), before total RNA was extracted with an RNeasv Mini Kit (Qiagen). DNase I treatment was performed with a TURBO DNA-free Kit (ThermoFisher). The extracted RNA was subjected to Agilent 2100 analysis, and the level of major rRNA (the sum of 16S+23S rRNA) as percentage of total RNA. The values were compared across each treatment group. All experiments were repeated three times.

[6] = test system: NusB variants (Y18A, D76A, and D81A); assay: Isothermal titration calorimetry, NusB variants; assay type: binding, B. subtilis
Procedure: (§5) The interaction between MC4 and NusB was also biophysically quantified. […] Further experiments will be performed to resolve the structure of NusB in complex with MC4 for target validation, as well as structure-based lead optimization.
(§6) Isothermal calorimetric titration (ITC). ITC experiments were performed as described previously.^41 For compound testing, a 50 mM stock made up in DMSO was diluted to 500 μM in ITC buffer (50 mM KH2PO4, 150 mM NaCl, pH 7.4). All proteins were dialysed into ITC buffer and were supplemented with the same concentration of DMSO (1% v/v) to minimize buffer miss-match. MC4 was then titrated against 50 μM NusB wild type and mutants as described previously^41 using 1% DMSO in ITC buffer as the negative control.

[7] = target: T1, NusE (Bacillus subtilis, UniProt P21471); assay: Isothermal titration calorimetry, NusE; assay type: binding, B. subtilis
T1 construct: 3C protease site + GST (C); made in house; host or cells: E. coli BL21 (DE3) pLysS

[8] = test system: A549 lung carcinoma; assay: Cytotoxicity assay, A549; assay type: cell-based, human; settings: mammalian cell lines (Table 1: A549, HaCaT), compared to 5-fluorouracil
Procedure: as §1

[9] = test system: community-acquired MRSA strain USA300; assay: Microdilution assay (MIC) against community-acquired MRSA strain USA300; assay type: cell-based; settings: Staphylococcus aureus, read-out: minimum inhibitory concentration (MIC)
Procedure: as §2, §3, §4

[10] = target: T2, NusB-NusE interaction (Bacillus subtilis, UniProt P54520); assay: ELISA-based inhibitory assay of NusB-NusE heterodimer formation; assay type: binding, B. subtilis; settings: NusB coated plate, GST-tagged NusE probe; read-out: IC50, inhibition of the NusB-NusE interaction
T2 construct: 6xHis (N); made in house; host or cells: E. coli BL21 (DE3) pLysS
Procedure: Finally, to establish MC4's mode of action at the molecular level, an enzyme-linked immunosorbant assay-based inhibitory assay was performed to assess the in vitro inhibition of NusB-NusE heterodimer formation by MC4.^24 Purified NusB was used to coat the 96-well plate, and GST-tagged NusE was used as the probe. […] With the change in the phenyl acetylene group to phenols, the IC50 values of the corresponding MC4 analogues increased, while deletion of this terminal triple bond or replacing by methyl or chloride caused a reduced IC50. When p-nitrophenol was modified to o-nitrophenol, the IC50 values increased, probably because of the involvement of the phenol group in the binding interaction with NusB Y81 (Table 3).
Protein overproduction and purification. B. subtilis NusB (wild type and mutant) and NusE-GST were overproduced from plasmids (Table 2) and purified using a similar approach to that described previously.^45 Purified proteins were dialyzed into 20 mM KH2PO4, 150 mM NaCl, 30% glycerol, pH 7.8 and stored at […].
ELISA-based assays. These assays were performed as described previously,^41 except NusB was used to coat the NUNC MaxiSorp™ 96-well plates and GST-tagged NusE used as the probe.

[11] = target: T3, B. subtilis NusB wild type protein (Bacillus subtilis, UniProt P54520); assay: Isothermal titration calorimetry, NusB wild type; assay type: binding; settings: ITC
T3 construct: 6xHis (N); made in house; host or cells: E. coli BL21 (DE3) pLysS
Procedure: as §5, §6

T2 sequence (P54520 whole entry): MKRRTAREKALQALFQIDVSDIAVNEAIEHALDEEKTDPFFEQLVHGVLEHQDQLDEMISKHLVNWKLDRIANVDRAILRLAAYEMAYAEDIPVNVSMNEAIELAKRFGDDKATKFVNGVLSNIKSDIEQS
T3 sequence (P54520 whole entry): as above

O=c1[nH]cc(F)c(=O)[nH]1 [5-fluorouracil, reference compound]
CC50 [1]: < 0.001 µM | CC50 [2]: 0.00562 ± 2e-06 µM

C#Cc1cccc(/N=C/c2cc([N+](=O)[O-])ccc2O)c1 [MC4, (E)-2-[[(3-ethynylphenyl)imino]methyl]-4-nitrophenol]
MIC [3]: 8 µg/mL (≈ 30 µM) | MIC [4]: 16 µg/mL (≈ 60.1 µM) | DNA level [5]: none of the treatment affected the DNA level | protein level [5]: significant reduction in the protein level | rRNA level (16S+23S) [5]: significant reduction in the rRNA level | Binding to NusB variants by ITC [6]: could not be detected | CC50 [1]: 695.1 ± 5.95 µM | Binding to NusE by ITC [7]: could not be detected | cytotoxicity against mammalian cell lines [8]: did not show significant cytotoxicity | CC50 [2]: 183 ± 7.71 µM | MIC [9]: 64 µg/mL (≈ 240 µM) | IC50 [10]: ~34.7 µM and 34.7 µM | N [11]: 0.988±0.076 | ΔH [11]: -7.141 ± 0.9398 kcal/mol | ΔS [11]: −1.81 cal/mol/deg | Kd ([11]; one-site binding mode): 1.45 ± 0.55 µM

O=[N+]([O-])c1cccc(/C=N/c2ccccc2)c1O [MC4-1, 2-nitro-6-[(E)-(phenylimino)methyl]phenol]
IC50 [10]: 14.4 ± 2.59 µM

O=[N+]([O-])c1ccc(O)c(C=Nc2ccccc2)c1 [MC4-4, 4-nitro-2-[(phenylimino)methyl]phenol]
IC50 [10]: 147 ± 17.9 µM

Cc1cccc(/N=C/c2cc([N+](=O)[O-])ccc2O)c1 [MC4-5, 2-{(E)-[(3-methylphenyl)imino]methyl}-4-nitrophenol]
IC50 [10]: 971 ± 11.6 µM

O=[N+]([O-])c1ccc(O)c(/C=N/c2ccc(O)cc2)c1 [MC4-6, 2-{(E)-[(4-hydroxyphenyl)imino]methyl}-4-nitrophenol]
IC50 [10]: 0.00815 µM

O=[N+]([O-])c1ccc(O)c(/C=N/c2ccc(Cl)cc2)c1 [MC4-7, 2-{(E)-[(4-chlorophenyl)imino]methyl}-4-nitrophenol]
IC50 [10]: 1639 ± 12.7 µM

O=[N+]([O-])c1ccc(O)c(/C=N/c2cccc(O)c2)c1 [MC4-8, 2-{(E)[(3-hydroxyphenyl)imino]methyl}-4-nitrophenol]
IC50 [10]: 0.00692 µM

Cc1onc(-c2ccccc2)c1C(=O)N[C@@H]1C(=O)N2[C@@H]1SC(C)(C)[C@@H]2C(=O)O [oxacillin, reference compound]
DNA level [5]: none of the treatment affected the DNA level | protein level [5]: slightly higher than those of control cells | rRNA level (16S+23S) [5]: slightly higher than those of control cells
